Laboratory results as given in patent publication US5204311A, “Ethanediimidic acid bis[(arylalkylidene)hydrazide] color-formers” (Minnesota Mining and Manufacturing Company, priority 1991, dated 1993).
Entries after “also recorded” stand apart in the source; their conditions may differ.

Experiments:
[1] = Solubility in capsule fill solvents; type: physicochemical
Procedure: The encapsulation process requires the color-forming ligand be dissolved in a solvent or mixed solvents, because of the nature of the procedure. Formation of a microcapsule shell as by condensation of urea or melamine with an aldehyde such as formaldehyde or mixtures of aldehydes to form the capsule shell is carried out in an acidic aqueous medium and the color-former solution must be insoluble and unreactive to these reagents for the encapsulation to proceed. Solvents commonly used include tributyl phosphate, diethyl phthalate, and cyclohexane. […] As mentioned above, solubility of yellow color-formers exemplified by structure I in nonaqueous solvents such as those used in the encapsulation process may be increased by substituting alkyl, aryl, aralkyl, alkenyl, or such groups for the hydrogens on the various positions available in the structure I above.
This color observed on the CF sheet was yellow. […] Solubility in a solvent blend of tributyl phosphate, diethyl phthalate and cyclohexane (capsule solvents for preparing carbonless copy-paper) was >9% by weight. Thus the ligand is eminently suitable for encapsulation. The ligand is not volatile at 71 ° C. overnight.
Solubility in a solvent blend of tributyl phosphate, diethyl phthalate and cyclohexane (capsule solvents for preparing carbonless copy-paper) was 3% by weight. Thus the ligand is eminently suitable for encapsulation. The ligand is not volatile at 71 ° C. overnight.
*THE SOLUBILITY WAS DEEMED PREFERABLE IF IT WAS GREATER THAN 2% IN THE
FILL MIX AT ROOM TEMPERATURE FOR 3 DAYS. THE FILL MIX COMPRISED
TRIBUTYLPHOSPHATE (26.5%); DIETHYLPHTHALATE (17.6%); AND CYCLOHEXANE

[2] = Color (Hunter coordinates) of Ni complex, swabbed on Ni-coated receptor (CF) sheet; type: physicochemical; parameters: key to Hunter coordinate a / Hunter Coordinates a: Hunter a: +a red, -a green; key to Hunter coordinate b / Hunter Coordinates b: Hunter b: +b yellow, -b blue; settings: for Chroma: C=(a^2 +b^2)^1/2; for Chroma / Image Color / Hunter Coordinates L / Hunter Coordinates a / Hunter Coordinates b: Ni(II) complex; for Chroma / Image Color: swab concn. 1% (Table 2); for Hunter Coordinates L / Hunter Coordinates a / Hunter Coordinates b: swab concn. 1%, 45°/0° reflectance, illuminant C (Table 2); for color of nickel / transition metal coordination compound (in words) / Chroma (in words): description
Procedure: In general, the colors of the complexes, as listed in Table 2 and Experiments 4, 6, and 7 below, were determined by preparing a 1% solution of the color-former or mixture of color-formers in an appropriate solvent. Unless otherwise indicated, the solvent was composed of a mixture of tributyl phosphate (26.5%), diethyl phthalate (17.6%), and cyclohexane (55.9%). The images were formed by applying two stripes of the solution to a substrate coated with a Ni^2+ coated receptor sheet using a cotton tipped applicator swab. Rapid and complete development of the image was achieved by passing the sheet through a hot shoe adjusted to 102° C., making a revolution every 10 seconds. The visually observed colors were measured and recorded.
One method of color measurement is to determine the color's position in color space. One color space system is the Hunter System; see F. W. Billmeyer, Jr., and M. Saltzman, Principles of Color Technology; John Wiley & Sons; New York, N.Y.; Ch. 2 & 3, 1981. In this system three mutually perpendicular axes (L, a, and b) are needed to define a color. "L" (+z axis) represents the lightness or darkness of the image; "a" (x axis) represents the amount of red or green (+a is red, -a is green); and "b" (y axis) represents the amount of yellow or blue (+b is yellow, -b is blue). By measuring a material's L, a, and b values, the color of one sample can be compared with that of other samples. Another value used in the Hunter System is Chroma (C). Chroma is defined by the equation [C=(a^2 +b^2)^1/2 ] and represents the distance of the image coordinates from the origin. The greater the Chroma, the more intense the image. Chroma is used to compare images cf the same hue. Because the color of a sample is also dependent upon the color temperature of the illuminating source, the angle at which the sample is illuminated, the angle at which the illumination is reflected, and the angle of the retina illuminated, these all need to be specified. Many instruments have been developed to record these values. One such instrument is the HunterLab LabScan II. This instrument is capable of automatically determining the L, a, and b values for a given sample, and was used for the following examples.
The L, a, and b color coordinates of the more uniform stripe were measured for 45°/0° reflectance on a HunterLab LabScan II, secondary observer, using illuminant C. The observed (image) color and the Hunter coordinates for Ni^2+ complexes of the yellow color-formers of this invention are given in Table 2.
A 1% solution of the condensation product in the encapsulation fill mix was swabbed onto a carbonless paper CF sheet (sold by the 3M Co. St. Paul, Minn.) with a cotton swab. The reflectance spectra had Hunter coordinates of: […]

Compound	Dye Solubility ([1]; fill mix tributylphosphate (26.5%), diethylphthalate (17.6%), cyclohexane (55.9%), room temperature, 3 days (Table 2)) [%]	Chroma [2]	Image Color [2]	Hunter Coordinates L [2]	Hunter Coordinates a [2]	Hunter Coordinates b [2]	Dye Solubility ([1]; 4320 min) [%]	color of nickel / transition metal coordination compound (in words) [2]	Chroma (in words) ([2]; nickel complex)	measured reflectance density (in words) ([2]; nickel complex)
NC(=NN=Cc1cc([N+](=O)[O-])ccc1O)C(N)=NN=Cc1cc([N+](=O)[O-])ccc1O [Compound 4, Ethanediimidic acid bis[(2-hydroxy-5-nitrophenylmethylene)hydrazide]]	< 2.0	40.1	Yellow	83.9	-9.7	38.9				
CC(=NN=C(N)C(N)=NN=C(C)c1ccccc1O)c1ccccc1O [Compound 6, Ethanediimidic acid bis[(2-hydroxyphenyl-methyl-methylene)hydrazide]]		20.1	Yellow	48.3	-5.3	19.4	< 2.0	yellow		
NC(=NN=Cc1ccco1)C(N)=NN=Cc1ccco1 [Compound 12, Ethanediimidic acid bis[(furylmethylene)hydrazide]]		25.8	Yellow	89.4	-10.6	23.5	< 2.0		intermediate between that of aliphatic and the preferred o-substituted ligands	
NC(=NN=Cc1ccccn1)C(N)=NN=Cc1ccccn1 [Compound 14, Ethanediimidic acid bis[(2-pyridylmethylene)hydrazide]]		35.0	Yellow	86.5	-11.0	33.2	< 2.0		intermediate between that of aliphatic and the preferred o-substituted ligands	
CCOC(=O)CC(C)=NN=C(N)C(N)=NN=C(C)CC(=O)OCC [Compound 7]		15.4		89.4	-5.8	14.3	> 2.0			
NC(=NN=C(c1ccccc1)c1ccc(O)cc1O)C(N)=NN=C(c1ccccc1)c1ccc(O)cc1O [Compound 8, Ethanediimidic acid bis[(2,4-dihydroxyphenyl-phenyl-methylene)hydrazide]]		18.0		88.0	-6.0	17.0	< 2.0			
CCCCCCC=NN=C(N)C(N)=NN=CCCCCCC [Compound 15]		11.6		89.9	-4.2	10.8	> 2.0	very weakly yellow; also recorded: weak yellow	low and low Chroma value	low
CCOc1cccc(C=NN=C(N)C(N)=NN=Cc2cccc(OCC)c2O)c1O [Compound 11, Ethanediimidic acid bis[(2-hydroxy-3-ethoxyphenylmethylene)hydrazide]]		39.3	Yellow	88.4	-15.2	36.2	< 2.0			
CC(C)(C)c1cc(C=NN=C(N)C(N)=NN=Cc2cc(C(C)(C)C)c(O)c(C(C)(C)C)c2)cc(C(C)(C)C)c1O [Compound 2, Ethanediimidic acid bis[(4-hydroxy-3,5-di-t-butylphenylmethylene)hydrazide]]		19.2		90.0	-8.0	17.6	> 2.0	much weaker	lower Chroma	
NC(=NN=Cc1c(O)ccc2ccccc12)C(N)=NN=Cc1c(O)ccc2ccccc12 [Compound 17, Ethanediimidic acid bis[(2-hydroxy-1-naphthylmethylene)hydrazide]]		28.5	Yellow	86.6	-6.5	27.8	< 2.0			
